System: Phellinus tremulae
Assay: Antifungal activity against Phellinus tremulae at 1 mg/mL
Assay type: functional

SMILES	inhibition at 1000 µg/mL [%]
COc1cc(C)cc2c1C(=O)c1c(O)cc(O)cc1C2=O [1-O-METHYLEMODIN]	50
COc1cc(C)cc2c1C(=O)c1c(O)cc(O)c(Cl)c1C2O (configuration not stated)	50

— ChEMBL document CHEMBL1149044, “Anthraquinones and a 10-Hydroxyanthrone from Phialophora alba” (1994)
